PubChem BioAssay (NCI)
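These data come from cells grown in 96-well plates and exposed to compound for 48 hours at five concentrations. At the GI50, growth is halved. TGI: total growth inhibition.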

Assays:
Assay in all cases: NCI tumour cell line growth inhibition, 48 h
[1] = test system: SN12C renal
[2] = test system: HS 578T breast
[3] = test system: HT29 colon
[4] = test system: OVCAR-5 ovarian
[5] = test system: DU-145 prostate
[6] = test system: CAKI-1 renal
[7] = test system: UO-31 renal
[8] = test system: 786-0 renal
[9] = test system: SF-268 CNS
[10] = test system: U251 CNS
[11] = test system: NCI-H460 lung
[12] = test system: SK-OV-3 ovarian
[13] = test system: SK-MEL-5 melanoma
[14] = test system: IGROV1 ovarian
[15] = test system: PC-3 prostate
[16] = test system: TK-10 renal
[17] = test system: K-562 leukemia
[18] = test system: NCI-H522 lung
[19] = test system: A549 NSCLC
[20] = test system: EKVX NSCLC
[21] = test system: RPMI-8226 leukemia
[22] = test system: NCI/ADR-RES ovarian
[23] = test system: SNB-19 CNS
[24] = test system: SNB-75 CNS
[25] = test system: MALME-3M melanoma

**Q.** How did the GI50 [1] turn out when `Cc1cc(=O)[nH]c2c1C(=O)C(=O)C=C2` was run?
**A.** The GI50 was 16.8 µM.

**Q.** And the TGI [1]?
**A.** The TGI was 32.7 µM.

**Q.** What about the GI50 [2] of the same compound?
**A.** Its GI50 is 40.4 µM.

**Q.** And the TGI [2]?
**A.** Its TGI is > 100 µM.

**Q.** What about the GI50 [3] of the same compound?
**A.** Its GI50 is 38.2 µM.

**Q.** What about the TGI [3] of the same compound?
**A.** The TGI was > 100 µM.

**Q.** What about the GI50 [4] of the same compound?
**A.** Its GI50 is 41.3 µM.

**Q.** And the TGI [4]?
**A.** The TGI was > 100 µM.

**Q.** And the GI50 [5]?
**A.** The GI50 was 25 µM.

**Q.** What about the TGI [5] of the same compound?
**A.** Its TGI is 53.9 µM.

**Q.** And the GI50 [6]?
**A.** Its GI50 is 19.4 µM.

**Q.** What about the TGI [6] of the same compound?
**A.** Its TGI is 37.4 µM.

**Q.** What about the GI50 [7] of the same compound?
**A.** The GI50 was 77.3 µM.

**Q.** And the TGI [7]?
**A.** The TGI was > 100 µM.

**Q.** And the GI50 [8]?
**A.** Its GI50 is 18.7 µM.

**Q.** What about the TGI [8] of the same compound?
**A.** Its TGI is 36.3 µM.

**Q.** What about the GI50 [9] of the same compound?
**A.** Its GI50 is 18.7 µM.

**Q.** What about the TGI [9] of the same compound?
**A.** The TGI was 43.7 µM.

**Q.** What about the GI50 [10] of the same compound?
**A.** The GI50 was 23.8 µM.

**Q.** What about the TGI [10] of the same compound?
**A.** Its TGI is 63.5 µM.

**Q.** And the GI50 [11]?
**A.** Its GI50 is 27.1 µM.

**Q.** And the TGI [11]?
**A.** The TGI was 74 µM.

**Q.** What about the GI50 [12] of the same compound?
**A.** Its GI50 is > 100 µM.

**Q.** What about the TGI [12] of the same compound?
**A.** The TGI was > 100 µM.

**Q.** And the GI50 [13]?
**A.** The GI50 was 16.7 µM.

**Q.** What about the TGI [13] of the same compound?
**A.** Its TGI is 36.9 µM.

**Q.** And the GI50 [14]?
**A.** The GI50 was 48.6 µM.

**Q.** What about the TGI [14] of the same compound?
**A.** Its TGI is > 100 µM.

**Q.** What about the GI50 [15] of the same compound?
**A.** The GI50 was 71 µM.

**Q.** And the TGI [15]?
**A.** Its TGI is > 100 µM.

**Q.** What about the GI50 [16] of the same compound?
**A.** Its GI50 is 64.1 µM.

**Q.** What about the TGI [16] of the same compound?
**A.** The TGI was > 100 µM.

**Q.** And the GI50 [17]?
**A.** Its GI50 is 34.3 µM.

**Q.** And the TGI [17]?
**A.** Its TGI is > 100 µM.

**Q.** And the GI50 [18]?
**A.** The GI50 was > 100 µM.

**Q.** And the TGI [18]?
**A.** Its TGI is > 100 µM.

**Q.** And the GI50 [19]?
**A.** The GI50 was 81.9 µM.

**Q.** And the TGI [19]?
**A.** Its TGI is > 100 µM.

**Q.** And the GI50 [20]?
**A.** The GI50 was 54 µM.

**Q.** And the TGI [20]?
**A.** Its TGI is > 100 µM.

**Q.** What about the GI50 [21] of the same compound?
**A.** Its GI50 is 39 µM.

**Q.** What about the TGI [21] of the same compound?
**A.** Its TGI is > 100 µM.

**Q.** And the GI50 [22]?
**A.** The GI50 was 18.4 µM.

**Q.** And the TGI [22]?
**A.** Its TGI is 40.7 µM.

**Q.** What about the GI50 [23] of the same compound?
**A.** Its GI50 is 42.7 µM.

**Q.** What about the TGI [23] of the same compound?
**A.** Its TGI is > 100 µM.

**Q.** And the GI50 [24]?
**A.** The GI50 was 33.5 µM.

**Q.** And the TGI [24]?
**A.** The TGI was > 100 µM.

**Q.** And the GI50 [25]?
**A.** The GI50 was 29.8 µM.

**Q.** And the TGI [25]?
**A.** The TGI was 96.8 µM.
